The source of these data is article PMC8910009, “Identification of Novel and Potent Indole-Based Benzenesulfonamides as Selective Human Carbonic Anhydrase II Inhibitors: Design, Synthesis, In Vitro, and In Silico Studies” (International Journal of Molecular Sciences, 2022).

In one test the target is hCA I (Homo sapiens, UniProt P00915). The test is described as follows: stopped flow CO2 hydrase assay, hCA I.
In the next test the target is hCA II (Homo sapiens, UniProt P00918). Kind of test: stopped flow CO2 hydrase assay, hCA II.
The next test has as its target hCA IX (Homo sapiens, UniProt Q16790). The test is described as follows: stopped flow CO2 hydrase assay, hCA IX.
The target in the next test is hCA XII (Homo sapiens, UniProt O43570). Kind of test: stopped flow CO2 hydrase assay, hCA XII.
hCA XII, sequence (O43570 25-354): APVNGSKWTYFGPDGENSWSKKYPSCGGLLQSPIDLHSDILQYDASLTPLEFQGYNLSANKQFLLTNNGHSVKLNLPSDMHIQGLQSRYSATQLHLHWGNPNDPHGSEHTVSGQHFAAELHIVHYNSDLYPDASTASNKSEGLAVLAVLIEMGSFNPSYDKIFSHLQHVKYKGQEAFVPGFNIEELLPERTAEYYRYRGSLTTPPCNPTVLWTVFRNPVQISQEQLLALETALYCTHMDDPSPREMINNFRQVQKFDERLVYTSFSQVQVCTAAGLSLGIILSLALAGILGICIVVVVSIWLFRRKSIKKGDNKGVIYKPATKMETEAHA

hCA I, sequence (P00915 whole entry): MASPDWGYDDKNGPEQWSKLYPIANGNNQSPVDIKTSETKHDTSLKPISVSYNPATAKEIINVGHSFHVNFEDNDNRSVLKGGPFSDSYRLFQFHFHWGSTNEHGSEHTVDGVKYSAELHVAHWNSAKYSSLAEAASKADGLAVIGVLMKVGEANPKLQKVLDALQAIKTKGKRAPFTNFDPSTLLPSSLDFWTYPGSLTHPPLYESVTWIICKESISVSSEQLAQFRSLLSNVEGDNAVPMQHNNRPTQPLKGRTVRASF
Method for hCA II: (§1) The tested CA panel was comprised of the two ubiquitously expressed cytosolic hCA I and II isoforms, along with the two tumor-related transmembrane hCA IX and XII isoforms. The activity of the synthesized hybrids was reported as Ki (inhibition constant) to assess their binding affinity. […] The inhibitor and enzyme solutions were first preincubated together for 15 min at room temperature to enable for the generation of the E–I complex. Photophysics stopped-flow instrument was used to measure the CA-catalyzed CO2 hydration activity. Phenol red (at a concentration of 0.2 mM) was added as an indicator after a period of 10–100 s in the CA-catalyzed CO2 hydration reaction at an absorbance maximum of 557 nm, with 20 mM Hepes (pH = 7.4) and 10 mM NaClO4 (to maintain constant ionic strength) [30]. […] In the initial 5–10% of the reaction, at least six traces were examined to determine the initial velocity for each inhibitor. Similarly, the total measured rates were used to measure the uncatalyzed rates [32]. Distilled–deionized water was used in the preparation of the Stock inhibitor solutions (10 mM), as well as dilutions up to 0.01 nM. The inhibition constants were measured utilizing PRISM 3, whereas the Lineweaver–Burk plots were used to measure the kinetic parameters which comprised the mean of at least three separate measurements [33, 34].
Method for hCA IX: as §1
Method for hCA XII: as §1

`NS(=O)(=O)c1cccc(NC(=O)CCc2c[nH]c3ccccc23)c1` [Compound 2a, 3-(1H-indol-3-yl)-N-(3-sulfamoylphenyl)propanamide]: the Ki on hCA I was found to be 79.8 nM; on hCA II, 5.9 nM; on hCA IX it was 206 nM; at hCA XII it was 54.2 nM. Further, the “selectivity for hCA II over hCA I” value on hCA II (ratio of Ki values) was determined as 13 fold. Besides, the “selectivity for hCA II over hCA IX” value on hCA II (ratio of Ki values) is on record as 34 fold. Also, the “selectivity for hCA II over hCA XII” value at hCA II (ratio of Ki values) came out at 9 fold.

As for `NS(=O)(=O)c1ccc(O)c(NC(=O)CCc2c[nH]c3ccccc23)c1` [Compound 2b, N-(2-hydroxy-5-sulfamoylphenyl)-3-(1H-indol-3-yl)propanamide], the Ki came to 2800 nM at hCA I, 7.3 nM on hCA II, 286 nM at hCA IX and 85.1 nM at hCA XII.

`NS(=O)(=O)c1ccc(CCNC(=O)CCc2c[nH]c3ccccc23)cc1` [Compound 2c, 3-(1H-indol-3-yl)-N-(4-sulfamoylphenethyl)propanamide]: the Ki at hCA I was 217 nM; at hCA II it was 9 nM; at hCA IX, 222 nM; at hCA XII it was 36.9 nM.

In the case of `NS(=O)(=O)c1ccc(NC(=O)CCc2c[nH]c3ccccc23)cc1` [Compound 2d, 3-(1H-indol-3-yl)-N-(4-sulfamoylphenyl)propanamide], the Ki at hCA I worked out at 97.6 nM; at hCA II, 7.1 nM; at hCA IX, 166 nM; at hCA XII it was 42.2 nM.

As for `NS(=O)(=O)c1cccc(NC(=O)c2ccc3[nH]ccc3c2)c1` [Compound 2e, N-(3-sulfamoylphenyl)-1H-indole-5-carboxamide], the Ki on hCA I amounted to 5570 nM; on hCA II, 45.5 nM; on hCA IX it was 766 nM; on hCA XII, 90.9 nM.

For the compound `NS(=O)(=O)c1ccc(NC(=O)c2ccc3[nH]ccc3c2)cc1` [Compound 2f, N-(4-sulfamoylphenyl)-1H-indole-5-carboxamide], the Ki worked out at 3110 nM on hCA I, 16 nM on hCA II, 165 nM at hCA IX and 257 nM at hCA XII.

In the case of `NS(=O)(=O)c1ccc(O)c(NC(=O)c2ccc3[nH]ccc3c2)c1` [Compound 2g, N-(2-hydroxy-5-sulfamoylphenyl)-1H-indole-5-carboxamide], the Ki at hCA I was 4770 nM; on hCA II, 680 nM; at hCA IX, 280 nM; at hCA XII, 85.3 nM.

`NS(=O)(=O)c1ccc(CCNC(=O)c2ccc3[nH]ccc3c2)cc1` [Compound 2h, N-(4-sulfamoylphenethyl)-1H-indole-5-carboxamide]: the Ki was determined as 554 nM at hCA I, 8.6 nM on hCA II, 240 nM on hCA IX and 236 nM at hCA XII.

Take `NS(=O)(=O)c1ccccc1NC(=O)c1ccc2[nH]ccc2c1` [Compound 2i, N-(2-sulfamoylphenyl)-1H-indole-5-carboxamide]: the Ki on hCA I amounted to 7450 nM; at hCA II it was 71.9 nM; on hCA IX, 635 nM; at hCA XII, 89.4 nM.

`NS(=O)(=O)c1cccc(NC(=O)c2ccc3cc[nH]c3c2)c1` [Compound 2j, N-(3-sulfamoylphenyl)-1H-indole-6-carboxamide]: the Ki on hCA I turned out to be 5400 nM; at hCA II it was 94.8 nM; at hCA IX, 654 nM; at hCA XII, 40.5 nM.

In the case of `NS(=O)(=O)c1ccc(NC(=O)c2ccc3cc[nH]c3c2)cc1` [Compound 2k, N-(4-sulfamoylphenyl)-1H-indole-6-carboxamide], the Ki worked out at 4660 nM at hCA I, 833 nM at hCA II, 428 nM at hCA IX and 83.8 nM at hCA XII.

With `NS(=O)(=O)c1ccc(O)c(NC(=O)c2ccc3cc[nH]c3c2)c1` [Compound 2l, N-(2-hydroxy-5-sulfamoylphenyl)-1H-indole-6-carboxamide], the Ki on hCA I stood at 4280 nM; at hCA II, 682 nM; at hCA IX it was 423 nM; on hCA XII, 73.7 nM.

Consider `NS(=O)(=O)c1ccc(CCNC(=O)c2ccc3cc[nH]c3c2)cc1` [Compound 2m, N-(4-sulfamoylphenethyl)-1H-indole-6-carboxamide], for which the Ki was 253 nM at hCA I, 38.8 nM at hCA II, 278 nM on hCA IX and 85.1 nM at hCA XII.

`NS(=O)(=O)c1ccccc1NC(=O)c1ccc2cc[nH]c2c1` [Compound 2n, N-(2-sulfamoylphenyl)-1H-indole-6-carboxamide]: the inhibition constant (Ki) at hCA I came to 7510 nM; on hCA II it was 670 nM; at hCA IX it was 487 nM; on hCA XII it was 36.9 nM.

Consider `NS(=O)(=O)c1ccc(C(=O)Nc2ccc3[nH]ccc3c2)cc1` [Compound 2o, N-(1H-indol-5-yl)-4-sulfamoylbenzamide], for which the Ki came to 56.6 nM at hCA I, 7.5 nM at hCA II, 170 nM at hCA IX and 66.9 nM at hCA XII.

By Ki is commonly meant the dissociation constant of the complex between target and ligand, obtained from inhibition or displacement.
